Test results published in PMC11233931, “Remodeling tumor‐associated macrophage for anti‐cancer effects by rational design of irreversible inhibition of mitogen‐activated protein kinase‐activated protein kinase 2” (MedComm, 2024).

Legend:
Experiment in all cases: Eurofins kinase selectivity profile against 380 other human recombinant kinases (Table S2)
Format in all cases: biochemical
[1] = target: T1, 380 human recombinant protein kinases (Homo sapiens, UniProt P43250); details: GRK6(h), read-out: Inhibition rate
T1 construct: purchased Eurofins (Celle Lévescault)
Method in brief: (§1)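 Commercial selectivity screen of the test compound against a panel of 380 human recombinant protein kinases, run by an outside contractor at several compound concentrations to check whether its potency was specific for MK2.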

[2] = target: T2, 380 human recombinant protein kinases (Homo sapiens, UniProt Q13976); details: PKG1α(h), read-out: Inhibition rate
T2 construct: purchased Eurofins (Celle Lévescault)
T2 sequence (Q13976 1-671): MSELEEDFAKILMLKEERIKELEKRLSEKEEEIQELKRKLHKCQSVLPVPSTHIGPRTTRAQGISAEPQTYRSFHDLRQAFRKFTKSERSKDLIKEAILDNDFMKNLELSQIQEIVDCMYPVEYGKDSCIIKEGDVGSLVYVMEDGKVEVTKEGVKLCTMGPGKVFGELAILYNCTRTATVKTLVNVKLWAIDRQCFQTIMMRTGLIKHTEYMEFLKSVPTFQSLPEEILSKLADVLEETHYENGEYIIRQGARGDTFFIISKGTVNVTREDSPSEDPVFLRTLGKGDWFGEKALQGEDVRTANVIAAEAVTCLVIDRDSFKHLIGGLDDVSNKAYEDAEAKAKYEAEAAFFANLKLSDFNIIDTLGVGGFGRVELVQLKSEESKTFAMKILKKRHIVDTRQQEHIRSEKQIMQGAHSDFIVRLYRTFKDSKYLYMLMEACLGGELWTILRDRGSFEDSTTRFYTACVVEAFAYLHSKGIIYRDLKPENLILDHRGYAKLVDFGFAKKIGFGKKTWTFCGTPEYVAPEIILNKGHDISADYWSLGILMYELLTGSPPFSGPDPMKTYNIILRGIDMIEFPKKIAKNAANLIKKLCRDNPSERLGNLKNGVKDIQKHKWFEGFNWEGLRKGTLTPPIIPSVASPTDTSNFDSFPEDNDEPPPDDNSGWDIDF
Method in brief: as §1

[3] = target: T3, 380 human recombinant protein kinases (Homo sapiens, UniProt Q92630); details: DYRK2(h), read-out: Inhibition rate
T3 construct: purchased Eurofins (Celle Lévescault)
T3 sequence (Q92630 1-601): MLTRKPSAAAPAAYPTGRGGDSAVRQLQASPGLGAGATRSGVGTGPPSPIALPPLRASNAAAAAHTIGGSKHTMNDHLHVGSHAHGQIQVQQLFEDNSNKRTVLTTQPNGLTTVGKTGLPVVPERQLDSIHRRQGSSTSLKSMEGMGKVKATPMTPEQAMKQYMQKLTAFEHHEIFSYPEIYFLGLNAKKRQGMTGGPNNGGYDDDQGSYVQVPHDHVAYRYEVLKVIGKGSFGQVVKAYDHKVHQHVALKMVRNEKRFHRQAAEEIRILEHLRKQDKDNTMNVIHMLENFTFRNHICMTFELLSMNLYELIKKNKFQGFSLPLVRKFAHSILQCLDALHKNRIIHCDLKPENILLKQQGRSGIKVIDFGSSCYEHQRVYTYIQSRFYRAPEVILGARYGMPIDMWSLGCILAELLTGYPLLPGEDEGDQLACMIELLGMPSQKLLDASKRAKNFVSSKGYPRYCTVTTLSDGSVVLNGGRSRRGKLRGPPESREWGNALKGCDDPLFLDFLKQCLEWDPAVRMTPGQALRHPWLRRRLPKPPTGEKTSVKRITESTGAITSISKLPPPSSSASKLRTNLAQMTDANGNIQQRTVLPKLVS
Method in brief: as §1

[4] = target: T4, 380 human recombinant protein kinases (Homo sapiens, UniProt P27448); details: MARK3(h), read-out: Inhibition rate
T4 construct: purchased Eurofins (Celle Lévescault)
Method in brief: as §1

[5] = target: T5, 380 human recombinant protein kinases (Homo sapiens, UniProt O00329); details: PI3 Kinase (p110δ/p85α)(h), read-out: Inhibition rate (%)
T5 construct: purchased Eurofins (Celle Lévescault)
T5 sequence (O00329 1-1044): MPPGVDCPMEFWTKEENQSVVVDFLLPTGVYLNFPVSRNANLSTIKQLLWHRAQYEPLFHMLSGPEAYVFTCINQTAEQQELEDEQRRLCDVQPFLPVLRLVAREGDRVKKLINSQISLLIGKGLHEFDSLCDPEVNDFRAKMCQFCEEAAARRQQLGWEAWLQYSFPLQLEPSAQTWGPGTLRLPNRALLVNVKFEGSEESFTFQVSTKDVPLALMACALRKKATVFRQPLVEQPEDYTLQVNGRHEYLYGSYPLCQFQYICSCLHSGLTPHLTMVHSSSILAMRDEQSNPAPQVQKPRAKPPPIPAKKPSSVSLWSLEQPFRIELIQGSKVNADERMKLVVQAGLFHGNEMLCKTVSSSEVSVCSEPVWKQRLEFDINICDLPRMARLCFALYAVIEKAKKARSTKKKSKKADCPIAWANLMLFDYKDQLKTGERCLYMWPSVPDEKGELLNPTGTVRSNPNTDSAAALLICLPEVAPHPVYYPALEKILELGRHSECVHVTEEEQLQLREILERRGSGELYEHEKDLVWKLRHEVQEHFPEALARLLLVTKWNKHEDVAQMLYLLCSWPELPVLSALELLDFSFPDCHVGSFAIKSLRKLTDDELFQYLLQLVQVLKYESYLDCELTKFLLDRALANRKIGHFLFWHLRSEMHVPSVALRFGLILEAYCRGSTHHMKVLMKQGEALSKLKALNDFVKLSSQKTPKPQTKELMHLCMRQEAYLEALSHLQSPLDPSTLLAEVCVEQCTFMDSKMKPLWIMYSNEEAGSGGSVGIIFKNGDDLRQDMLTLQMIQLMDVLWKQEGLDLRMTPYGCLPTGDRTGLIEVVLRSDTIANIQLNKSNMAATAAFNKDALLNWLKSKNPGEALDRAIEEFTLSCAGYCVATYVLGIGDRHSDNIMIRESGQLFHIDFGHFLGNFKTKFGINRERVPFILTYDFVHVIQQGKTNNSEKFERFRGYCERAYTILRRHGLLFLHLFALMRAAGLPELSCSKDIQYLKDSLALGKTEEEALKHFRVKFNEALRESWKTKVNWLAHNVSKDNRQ
Method in brief: as §1

T1 sequence (P43250 whole entry): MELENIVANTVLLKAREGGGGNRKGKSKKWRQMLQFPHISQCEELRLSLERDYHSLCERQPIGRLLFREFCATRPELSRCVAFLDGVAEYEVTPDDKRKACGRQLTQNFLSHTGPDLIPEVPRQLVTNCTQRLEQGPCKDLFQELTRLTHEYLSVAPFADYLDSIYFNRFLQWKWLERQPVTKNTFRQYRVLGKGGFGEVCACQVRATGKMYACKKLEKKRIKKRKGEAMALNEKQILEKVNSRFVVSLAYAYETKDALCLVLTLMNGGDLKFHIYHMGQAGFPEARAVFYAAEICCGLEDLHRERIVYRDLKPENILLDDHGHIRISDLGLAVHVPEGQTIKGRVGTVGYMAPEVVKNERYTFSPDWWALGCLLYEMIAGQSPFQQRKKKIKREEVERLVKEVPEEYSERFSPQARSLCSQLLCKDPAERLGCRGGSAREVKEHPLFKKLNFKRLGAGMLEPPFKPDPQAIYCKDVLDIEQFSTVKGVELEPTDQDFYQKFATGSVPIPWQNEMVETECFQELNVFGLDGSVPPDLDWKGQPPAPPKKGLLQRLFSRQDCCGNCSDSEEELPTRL
T4 sequence (P27448 whole entry): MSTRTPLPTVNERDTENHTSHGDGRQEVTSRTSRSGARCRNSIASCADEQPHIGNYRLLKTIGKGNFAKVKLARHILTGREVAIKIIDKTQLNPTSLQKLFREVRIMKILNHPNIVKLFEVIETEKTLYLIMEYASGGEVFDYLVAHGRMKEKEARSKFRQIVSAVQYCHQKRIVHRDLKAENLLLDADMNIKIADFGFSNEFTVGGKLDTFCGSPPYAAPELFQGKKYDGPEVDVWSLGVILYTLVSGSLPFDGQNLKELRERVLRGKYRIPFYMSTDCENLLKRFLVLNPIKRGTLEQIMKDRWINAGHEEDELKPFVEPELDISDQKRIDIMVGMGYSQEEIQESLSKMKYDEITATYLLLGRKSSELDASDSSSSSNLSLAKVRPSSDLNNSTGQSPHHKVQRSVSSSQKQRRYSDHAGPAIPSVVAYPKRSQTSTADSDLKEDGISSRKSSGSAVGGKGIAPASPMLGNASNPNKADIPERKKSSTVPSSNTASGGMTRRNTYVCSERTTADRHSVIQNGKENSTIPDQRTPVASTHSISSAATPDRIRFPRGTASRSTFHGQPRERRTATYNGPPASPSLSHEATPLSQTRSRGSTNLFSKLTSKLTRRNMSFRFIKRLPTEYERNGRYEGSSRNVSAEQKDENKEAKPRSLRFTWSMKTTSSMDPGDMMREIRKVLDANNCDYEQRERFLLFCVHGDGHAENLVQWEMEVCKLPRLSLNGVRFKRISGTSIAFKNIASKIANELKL

Question: What does the source list for `C=CC(=O)Nc1cc(-c2cc(-c3cc4c([nH]3)CCNC4=O)ccn2)ccc1OC(F)(F)F` [compound 11]?
Answer: inhibition at 0.01 µM ([1]; 10 nM): -1%; inhibition at 0.1 µM ([1]; 100 nM): -1%; inhibition at 1 µM ([1]; 1000 nM): 1%; inhibition at 0.01 µM ([2]; 10 nM): 1%; inhibition at 0.1 µM ([2]; 100 nM): -4%; inhibition at 1 µM ([2]; 1000 nM): 8%; inhibition at 0.01 µM ([3]; 10 nM): 16%; inhibition at 0.1 µM ([3]; 100 nM): 67%; inhibition at 1 µM ([3]; 1000 nM): 98%; inhibition at 0.01 µM ([4]; 10 nM): 2%; inhibition at 0.1 µM ([4]; 100 nM): -4%; inhibition at 1 µM ([4]; 1000 nM): 5%; inhibition at 0.01 µM ([5]; 10 nM): -3%; inhibition at 0.1 µM ([5]; 100 nM): -1%; inhibition at 1 µM ([5]; 1000 nM): 2%
